# US8791102B2, “Acetanilide sphingosine-1-phosphate receptor antagonists” (Exelixis, Inc., priority 2008, dated 2014)
# Target: T1, human S1P1 receptors (Homo sapiens, UniProt P21453)
# T1 construct: host or cells: HEK293
# Assay: S1P1R antagonist assay (fluorescent membrane potential dye, cAMP readout)
# Assay type: cell-based
# Settings: HEK293 cells expressing human S1P1 receptors and CNG channel; 500 nM NECA; S1P1R agonist 10 nM; 90 minutes; read-out: EC50 or IC50 value
# T1 sequence (P21453 whole entry): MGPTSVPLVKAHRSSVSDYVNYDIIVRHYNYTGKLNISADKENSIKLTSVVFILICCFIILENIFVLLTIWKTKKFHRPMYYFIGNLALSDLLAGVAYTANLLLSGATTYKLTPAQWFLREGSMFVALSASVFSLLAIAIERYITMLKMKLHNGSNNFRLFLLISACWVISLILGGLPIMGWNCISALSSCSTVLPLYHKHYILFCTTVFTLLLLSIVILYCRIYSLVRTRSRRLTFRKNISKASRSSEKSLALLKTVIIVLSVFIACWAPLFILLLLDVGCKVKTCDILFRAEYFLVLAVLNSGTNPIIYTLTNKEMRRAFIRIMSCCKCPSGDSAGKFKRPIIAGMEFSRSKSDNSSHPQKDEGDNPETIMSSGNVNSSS
row,Structure (SMILES),IC50 [nM]
1,"O=C(Nc1ccc(Oc2ccc(F)cc2)cc1)[C@@H]1C[C@@H](Cc2c(F)cc(F)cc2F)CN1C(=O)Cn1nccn1 [Compound 169, (2S,4R)-1-(2-(2H-1,2,3-triazol-2-yl)acetyl)-N-(4-(4-fluorophenoxy)phenyl)-4-(2,4,6-trifluorobenzyl)pyrrolidine-2-carboxamide]",≤ 300
2,"O=C(Nc1ccc(Oc2ccc(F)cc2)cc1)[C@@H]1C[C@@H](Cc2ccccc2)CN1C(=O)Cn1nccn1 [Compound 58, (2S,4R)-1-(2-(2H-1,2,3-triazol-2-yl)acetyl)-4-benzyl-N-(4-(4-fluorophenoxy)phenyl)pyrrolidine-2-carboxamide]",≤ 300
3,"COc1ccc(OC)c(C(=O)NC(COCc2ccccc2)C(=O)Nc2ccc(Oc3ccccc3)cc2)c1 (stereo not drawn) [Compound 332, 2,5-bis(methyloxy)-N-(2-oxo-1-{[(phenylmethyl)oxy]methyl}-2-{[4-(phenyloxy)phenyl]amino}ethyl)benzamide]",300 to 1000
4,"O=C(CCl)N[C@@H](COCc1ccccc1)C(=O)Nc1ccc(Oc2ccc(F)cc2)cc1 [Compound 136, (S)-3-(benzyloxy)-2-(2-chloroacetamido)-N-(4-(4-fluorophenoxy)phenyl)propanamide]",≤ 300
5,"Cc1ccc(Oc2ccc(NC(=O)[C@H](COCc3ccccc3)NC(=O)Cc3c[nH]cn3)cc2)cc1 [Compound 158, (S)-2-(2-(1H-imidazol-5-yl)acetamido)-3-(benzyloxy)-N-(4-(p-tolyloxy)phenyl)propanamide]",≤ 300
6,"CC(=O)N[C@@H](COCc1ccccc1)c1nc2cc(Oc3ccc(F)cc3)ccc2[nH]1 [Compound 60, (R)—N-(2-(benzyloxy)-1-(5-(4-fluorophenoxy)-1H-benzo[d]imidazol-2-yl)ethyl)acetamide]",> 1000
7,"COc1ccccc1CCC(=O)NC(COCc1ccccc1)C(=O)Nc1ccc(Oc2ccccc2)cc1 (stereo not drawn) [Compound 394, N-(2-oxo-1-{[(phenylmethyl)oxy]methyl}-2-{[4-(phenyloxy)phenyl]amino}ethyl)-3-(2-methoxyphenyl)propanamide]",> 1000
8,"O=C(Cn1cnnn1)N[C@@H](COCc1ccccc1)C(=O)Nc1ccc(Oc2ccccc2)cc1 [Compound 144, (S)-2-(2-(1H-tetrazol-1-yl)acetamido)-3-benzyloxy-N-(4-phenoxyphenyl)propanamide]",≤ 300
9,"O=C(CCN1C(=O)c2ccccc2C1=O)NC(COCc1ccccc1)C(=O)Nc1ccc(Oc2ccccc2)cc1 (stereo not drawn) [Compound 322, N-(2-oxo-1-{[(phenylmethyl)oxy]methyl}-2-{[4-(phenyloxy)phenyl]amino}ethyl)-3-(1,3-dioxoisoindolin-2-yl)propanamide]",> 1000
10,"O=C(Cc1cnc[nH]1)N[C@@H](COCc1ccccc1)C(=O)Nc1ccc(Cc2ccccc2)cc1 [Compound 200, (S)-2-(2-(1H-imidazol-4-yl)acetamido)-3-(benzyloxy)-N-(4-benzylphenyl)propanamide]",≤ 300
11,"O=C(Nc1ccc(Oc2ccc(F)cc2)cc1)[C@@H]1C[C@@H](Cc2ccc(F)cc2Cl)CN1C(=O)Cn1ccnn1 [Compound 2, (2S,4R)-1-(2-(1H-1,2,3-triazol-1-yl)acetyl)-4-(2-chloro-4-fluorobenzyl)-N-(4-(4-fluorophenoxy)phenyl)pyrrolidine-2-carboxamide]",≤ 300
12,"O=C(Nc1ccc(Oc2ccccc2)cc1)C(COCc1ccccc1)NC(=O)C1(c2c(F)cccc2Cl)CCCC1 (stereo not drawn) [Compound 329, 1-(2-chloro-6-fluorophenyl)-N-(2-oxo-1-{[(phenylmethyl)oxy]methyl}-2-{[4-(phenyloxy)phenyl]amino}ethyl)cyclopentanecarboxamide]",> 1000
13,"O=C1CC[C@@H](C(=O)N2C[C@H](Cc3ccccc3)C[C@H]2C(=O)Nc2ccc(Oc3ccc(F)cc3)cc2)O1 [Compound 39, (2S,4R)-4-benzyl-N-(4-(4-fluorophenoxy)phenyl)-1-((S)-5-oxotetrahydrofuran-2-carbonyl)pyrrolidine-2-carboxamide]",≤ 300
14,"O=C(Cc1cc(Cl)ccc1F)NC(COCc1ccccc1)C(=O)Nc1ccc(Oc2ccccc2)cc1 (stereo not drawn) [Compound 192, 3-(benzyloxy)-2-(2-(5-chloro-2-fluorophenyl)acetamido)-N-(4-phenoxyphenyl)propanamide]",300 to 1000
15,"Cc1ccc(C(=O)NC(COCc2ccccc2)C(=O)Nc2ccc(Oc3ccccc3)cc2)cc1F (stereo not drawn) [Compound 400, 3-fluoro-4-methyl-N-(2-oxo-1-{[(phenylmethyl)oxy]methyl}-2-{[4-(phenyloxy)phenyl]amino}ethyl)benzamide]",> 1000
16,"COc1cccc2cc(C(=O)NC(COCc3ccccc3)C(=O)Nc3ccc(Oc4ccccc4)cc3)oc12 (stereo not drawn) [Compound 367, 7-(methyloxy)-N-(2-oxo-1-{[(phenylmethyl)oxy]methyl}-2-{[4-(phenyloxy)phenyl]amino}ethyl)-1-benzofuran-2-carboxamide]",> 1000
17,"O=C(NC(COCc1ccccc1)C(=O)Nc1ccc(Oc2ccccc2)cc1)c1cccnc1Oc1ccccc1 (stereo not drawn) [Compound 290, N-(2-oxo-1-{[(phenylmethyl)oxy]methyl}-2-{[4-(phenyloxy)phenyl]amino}ethyl)-2-(phenyloxy)pyridine-3-carboxamide]",> 1000

row,Structure (SMILES),IC50 [nM]
1,"COc1cccc(C[C@@H]2C[C@@H](C(=O)Nc3ccc(Oc4ccc(F)cc4)cc3)N(C(=O)Cn3ccnn3)C2)c1 [Compound 68, (2S,4R)-1-(2-(1H-1,2,3-triazol-1-yl)acetyl)-N-(4-(4-fluorophenoxy)phenyl)-4-(3-methoxybenzyl)pyrrolidine-2-carboxamide]",≤ 300
2,"O=C(Nc1ccc(Oc2ccc(F)cc2)cc1)[C@@H]1C[C@@H](Cc2ccccc2F)CN1C(=O)Cn1ccnn1 [Compound 264, (2S,4R)-1-(2-(1H-1,2,3-triazol-1-yl)acetyl)-4-(2-fluorobenzyl)-N-(4-(4-fluorophenoxy)phenyl)pyrrolidine-2-carboxamide]",≤ 300
3,"O=C(Nc1ccc(Oc2ccc(F)cc2)cc1)[C@@H]1C[C@@H](Cc2ccc(F)c(F)c2)CN1C(=O)Cn1ccnn1 [Compound 226, (2S,4R)-1-(2-(1H-1,2,3-triazol-1-yl)acetyl)-4-(3,4-difluorobenzyl)-N-(4-(4-fluorophenoxy)phenyl)pyrrolidine-2-carboxamide]",≤ 300
4,"CCCCC(C)C(=O)NC(COCc1ccccc1)C(=O)Nc1ccc(Oc2ccccc2)cc1 (stereo not drawn) [Compound 346, 2-methyl-N-(2-oxo-1-{[(phenylmethyl)oxy]methyl}-2-{[4-(phenyloxy)phenyl]amino}ethyl)hexanamide]",300 to 1000
5,"CN(C)C(=O)CCC(=O)NC(COCc1ccccc1)C(=O)Nc1ccc(Oc2ccccc2)cc1 (stereo not drawn) [Compound 339, N,N-dimethyl-N′-(2-oxo-1-{[(phenylmethyl)oxy]methyl}-2-{[4-(phenyloxy)phenyl]amino}ethyl)butanediamide]",> 1000
6,"O=C(Nc1ccc(Oc2ccc(F)cc2)cc1)[C@@H]1C[C@@H](Cc2ccccc2)CN1C(=O)CSc1ccncc1 [Compound 96, (2S,4R)-4-benzyl-N-(4-(4-fluorophenoxy)phenyl)-1-(2-(pyridin-4-ylthio)acetyl)pyrrolidine-2-carboxamide]",≤ 300
7,"COCCN1CCN(CC(=O)N2C[C@H](Cc3ccccc3)C[C@H]2C(=O)Nc2ccc(Oc3ccc(F)cc3)cc2)CC1 [Compound 100, (2S,4R)-4-benzyl-N-(4-(4-fluorophenoxy)phenyl)-1-(2-(4-(2-methoxyethyl)piperazin-1-yl)acetyl)pyrrolidine-2-carboxamide]",≤ 300
8,"O=C(CN1CCc2ccccc2C1)N[C@@H](COCc1ccccc1)C(=O)Nc1ccc(Oc2ccc(F)cc2)cc1 [Compound 221, (S)-3-(benzyloxy)-2-(2-(3,4-dihydroisoquinolin-2(1H)-yl)acetamido)-N-(4-(4-fluorophenoxy)phenyl)propanamide]",300 to 1000
9,"CSCC(=O)NC(COCc1ccccc1)C(=O)Nc1ccc(Oc2ccccc2)cc1 (stereo not drawn) [Compound 307, N-(2-oxo-1-{[(phenylmethyl)oxy]methyl}-2-{[4-(phenyloxy)phenyl]amino}ethyl)-2-(methylthio)acetamide]",≤ 300
10,"CCCC(C)C(=O)NC(COCc1ccccc1)C(=O)Nc1ccc(Oc2ccccc2)cc1 (stereo not drawn) [Compound 286, 2-methyl-N-(2-oxo-1-{[(phenylmethyl)oxy]methyl}-2-{[4-(phenyloxy)phenyl]amino}ethyl)pentanamide]",> 1000
11,"O=C(Nc1ccc(Oc2ccc(F)cc2)cc1)[C@@H]1C[C@@H](Cc2ccc(F)cc2)C(=O)N1C(=O)Cn1cncn1 [Compound 71, (2S,4R)-1-(2-(1H-1,2,4-triazol-1-yl)acetyl)-4-(4-fluorobenzyl)-N-(4-(4-fluorophenoxy)phenyl)-5-oxopyrrolidine-2-carboxamide]",≤ 300
12,"O=C(NC(COCc1ccccc1)C(=O)Nc1ccc(Oc2ccccc2)cc1)c1cc(F)ccc1Br (stereo not drawn) [Compound 21, N-(3-(benzyloxy)-1-oxo-1-(4-phenoxyphenylamino)propan-2-yl)-2-bromo-5-fluorobenzamide]",> 1000
13,"O=C(CCc1cnc[nH]1)N[C@@H](COCc1ccccc1)C(=O)Nc1ccc(Oc2ccc(F)cc2)cc1 [Compound 207, (S)-2-(3-(1H-imidazol-5-yl)propanamido)-3-(benzyloxy)-N-(4-(4-fluorophenoxy)phenyl)propanamide]",≤ 300
14,"Cc1cc(F)ccc1Oc1ccc(NC(=O)[C@@H]2C[C@@H](Cc3ccc(F)cc3)CN2C(=O)Cn2cncn2)cc1 [Compound 74, (2S,4R)-1-(2-(1H-1,2,4-triazol-1-yl)acetyl)-N-(4-(4-fluoro-2-methylphenoxy)phenyl)-4-(4-fluorobenzyl)pyrrolidine-2-carboxamide]",≤ 300
15,"O=C(Cn1cncn1)N[C@@H](COCc1ccccc1)C(=O)Nc1ccc(Sc2ccc(F)cc2)cc1 [Compound 178, (S)-2-(2-(1H-1,2,4-triazol-1-yl)acetamido)-3-(benzyloxy)-N-(4-(4-fluorophenylthio)phenyl)propanamide]",≤ 300
16,"O=C(COc1ccccc1)NC(COCc1ccccc1)C(=O)Nc1ccc(Oc2ccccc2)cc1 (stereo not drawn) [Compound 289, N-(2-oxo-1-{[(phenylmethyl)oxy]methyl}-2-{[4-(phenyloxy)phenyl]amino}ethyl)phenoxyacetamide]",> 1000
